US6737383B1, “Herbicidal oxadiazolidines” (priority 1999, dated 2004)

Assays:
common ragweed = assay: Test D common ragweed; assay type: in vivo, Ambrosia elatior
common pursiane = assay: Test D common purslane; assay type: in vivo, Portulaca oleracea; conditions: Postemergence, 0 to 100 scale
purple nutsedge = assay: Test D purple nutsedge; assay type: in vivo, Cyperus rotundus; conditions: Postemergence, 0 to 100 scale
guineagrass = assay: Test D guineagrass; assay type: in vivo, Panicum maximum; conditions: Postemergence, 0 to 100 scale
large crabgrass = assay: Test D large crabgrass; assay type: in vivo, Digitaria sanguinalis; conditions: Postemergence, 0 to 100 scale
surinam grass = assay: Test D surinam grass; assay type: in vivo, Brachiaria decumbens; conditions: Postemergence, 0 to 100 scale
bermuda-grass = assay: Test D bermudagrass; assay type: in vivo, Cynodon dactylon; conditions: Postemergence, 0 to 100 scale
Johnson grass = assay: Test D Johnson grass; assay type: in vivo, Sorghum halepense; conditions: Postemergence, 0 to 100 scale
[1] = Rate 32 g/ha; Postemergence; 0 to 100 scale, 0 no injury, 100 complete control
[2] = Rate 64 g/ha, Postemergence; 0 to 100 scale, 0 no injury, 100 complete control
[3] = Rate 125 g/ha, Postemergence; 0 to 100 scale, 0 no injury, 100 complete control
[4] = Rate 250 g/ha; Postemergence; 0 to 100 scale
[5] = Rate 16 g/ha, 0 no injury, 100 complete control
[6] = Rate 32 g/ha, 0 no injury, 100 complete control
[7] = Rate 64 g/ha, 0 no injury, 100 complete control
[8] = Rate 125 g/ha, 0 no injury, 100 complete control

CC(C)N(C(=O)n1oc(=O)n(C2CC2)c1=O)c1ccccc1 [Compound 243]
Plant response rating, C. ragweed (common ragweed; Rate 16 g/ha; Postemergence; 0 to 100 scale, 0 no injury, 100 complete control): 0
Plant response rating, C. ragweed (common ragweed; [1]): 0
Plant response rating, C. ragweed (common ragweed; [2]): 10
Plant response rating, C. ragweed (common ragweed; [3]): 10
Plant response rating, C. ragweed (common ragweed; [4]): 60
Plant response rating, C. purslane (common pursiane; [5]): 0
Plant response rating, C. purslane (common pursiane; [6]): 0
Plant response rating, C. purslane (common pursiane; [7]): 0
Plant response rating, C. purslane (common pursiane; [8]): 0
Plant response rating, C. purslane (common pursiane; Rate 250 g/ha): 0
Plant response rating, Purple nutsedge (purple nutsedge; [5]): 0
Plant response rating, Purple nutsedge (purple nutsedge; [6]): 0
Purple nutsedge plant response rating (purple nutsedge; [7]): 0
Purple nutsedge plant response rating (purple nutsedge; [8]): 10
Plant response rating, Purple nutsedge (purple nutsedge; Rate 250 g/ha): 100
Plant response rating, Guineagrass (guineagrass; [5]): 0
Plant response rating, Guineagrass (guineagrass; [6]): 0
Guineagrass plant response rating (guineagrass; [7]): 0
Plant response rating, Guineagrass (guineagrass; [7]): 20
Plant response rating, Guineagrass (guineagrass; [8]): 100
Plant response rating, Guineagrass (guineagrass; Rate 250 g/ha): 100
Plant response rating Large crabgrass (large crabgrass; [5]): 0
Plant response rating Large crabgrass (large crabgrass; [6]): 70
Plant response rating Large crabgrass (large crabgrass; [7]): 100
Plant response rating Large crabgrass (large crabgrass; [8]): 100
Plant response rating Large crabgrass (large crabgrass; Rate 250 g/ha): 100
Plant response rating, Surinam grass (surinam grass; [5]): 0
Plant response rating, Surinam grass (surinam grass; [6]): 20
Surinam grass plant response rating (surinam grass; [7]): 90
Surinam grass plant response rating (surinam grass; [8]): 100
Plant response rating, Surinam grass (surinam grass; Rate 250 g/ha): 100
Plant response rating, Bermudagrass (bermuda-grass; [5]): 20
Plant response rating, Bermudagrass (bermuda-grass; [6]): 60
Plant response rating, Bermudagrass (bermuda-grass; [7]): 100
Plant response rating, Bermudagrass (bermuda-grass; [8]): 100
Plant response rating, Bermudagrass (bermuda-grass; Rate 250 g/ha): 100
Plant response rating Johnsongrass (Johnson grass; [5]): 0
Plant response rating Johnsongrass (Johnson grass; [6]): 0
Plant response rating Johnsongrass (Johnson grass; [7]): 0
Plant response rating Johnsongrass (Johnson grass; [8]): 30
Plant response rating Johnsongrass (Johnson grass; Rate 250 g/ha): 100

COCC(C)n1c(=O)on(C(=O)N(c2ccc(F)cc2F)C(C)C)c1=O (stereo not shown) [Compound 352]
Plant response rating, C. ragweed (common ragweed; Postemergence; Rate 16 g/ha; 0 to 100 scale, 0 no injury, 100 complete control): 0
Plant response rating, C. ragweed (common ragweed; [1]): 0
Plant response rating, C. ragweed (common ragweed; [2]): 20
Plant response rating, C. ragweed (common ragweed; [3]): 20
Plant response rating, C. ragweed (common ragweed; [4]): 100
Plant response rating, C. purslane (common pursiane; [5]): 0
Plant response rating, C. purslane (common pursiane; [6]): 0
Plant response rating, C. purslane (common pursiane; [7]): 0
Plant response rating, C. purslane (common pursiane; [8]): 0
Plant response rating, C. purslane (common pursiane; Rate 250 g/ha): 0
Plant response rating, Purple nutsedge (purple nutsedge; [5]): 0
Plant response rating, Purple nutsedge (purple nutsedge; [6]): 0
Purple nutsedge plant response rating (purple nutsedge; [7]): 0
Purple nutsedge plant response rating (purple nutsedge; [8]): 0
Plant response rating, Purple nutsedge (purple nutsedge; Rate 250 g/ha): 0
Plant response rating, Guineagrass (guineagrass; [5]): 0
Plant response rating, Guineagrass (guineagrass; [6]): 0
Guineagrass plant response rating (guineagrass; [7]): 20
Plant response rating, Guineagrass (guineagrass; [7]): 60
Plant response rating, Guineagrass (guineagrass; [8]): 80
Plant response rating, Guineagrass (guineagrass; Rate 250 g/ha): 100
Plant response rating Large crabgrass (large crabgrass; [5]): 0
Plant response rating Large crabgrass (large crabgrass; [6]): 100
Plant response rating Large crabgrass (large crabgrass; [7]): 100
Plant response rating Large crabgrass (large crabgrass; [8]): 100
Plant response rating Large crabgrass (large crabgrass; Rate 250 g/ha): 100
Plant response rating, Surinam grass (surinam grass; [5]): 0
Plant response rating, Surinam grass (surinam grass; [6]): 0
Surinam grass plant response rating (surinam grass; [7]): 30
Surinam grass plant response rating (surinam grass; [8]): 70
Plant response rating, Surinam grass (surinam grass; Rate 250 g/ha): 100
Plant response rating, Bermudagrass (bermuda-grass; [5]): 0
Plant response rating, Bermudagrass (bermuda-grass; [6]): 80
Plant response rating, Bermudagrass (bermuda-grass; [7]): 100
Plant response rating, Bermudagrass (bermuda-grass; [8]): 100
Plant response rating, Bermudagrass (bermuda-grass; Rate 250 g/ha): 100
Plant response rating Johnsongrass (Johnson grass; [5]): 0
Plant response rating Johnsongrass (Johnson grass; [6]): 0
Plant response rating Johnsongrass (Johnson grass; [7]): 0
Plant response rating Johnsongrass (Johnson grass; [8]): 40
Plant response rating Johnsongrass (Johnson grass; Rate 250 g/ha): 80
